# The supplement of paper PMC10307832
# How the values were obtained:
# Assay in all cases: relative viability (nuclei count vs DMSO), 5 days (fraction); higher = more cells survive
# GW-2580 + OSI-027 = compound: COC1=CC=C(C=C1)COC2=C(C=C(C=C2)CC3=CN=C(N=C3N)N)OC [GW-2580] + COc1cccc2cc(-c3nc([C@H]4CC[C@H](C(=O)O)CC4)n4ncnc(N)c34)[nH]c12 [OSI-027] (partner 0.5 µM)
# Procedure, shortened: (§1)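 Lung cancer cell lines in 1536-well plates got either a single drug or a fixed anchor-drug dose together with five library-drug doses (not always all listed) in √10 steps, by pin tool, on the day after seeding. Nuclei were counted after 5 days, and relative viability is the treated-to-vehicle ratio of nuclei counts. Values are medians of duplicate plates.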
# GW-2580 + Decitabine = compound: COC1=CC=C(C=C1)COC2=C(C=C(C=C2)CC3=CN=C(N=C3N)N)OC [GW-2580] + Nc1ncn([C@H]2C[C@H](O)[C@@H](CO)O2)c(=O)n1 [Decitabine] (partner 2 µM)
# Procedure, shortened: as §1
# Fedratinib + OSI-027 = compound: Cc1cnc(Nc2ccc(OCCN3CCCC3)cc2)nc1Nc1cccc(S(=O)(=O)NC(C)(C)C)c1 [Fedratinib] + COc1cccc2cc(-c3nc([C@H]4CC[C@H](C(=O)O)CC4)n4ncnc(N)c34)[nH]c12 [OSI-027] (partner 0.5 µM)
# Procedure, shortened: as §1
# Fedratinib + Crizotinib = compound: Cc1cnc(Nc2ccc(OCCN3CCCC3)cc2)nc1Nc1cccc(S(=O)(=O)NC(C)(C)C)c1 [Fedratinib] + C[C@@H](Oc1cc(-c2cnn(C3CCNCC3)c2)cnc1N)c1c(Cl)ccc(F)c1Cl [Crizotinib] (partner 1 µM)
# Procedure, shortened: as §1
# Fedratinib + Pemetrexed = compound: Cc1cnc(Nc2ccc(OCCN3CCCC3)cc2)nc1Nc1cccc(S(=O)(=O)NC(C)(C)C)c1 [Fedratinib] + Nc1nc2[nH]cc(CCc3ccc(C(=O)N[C@@H](CCC(=O)O)C(=O)O)cc3)c2c(=O)[nH]1 [Pemetrexed] (partner 0.2 µM)
# Procedure, shortened: as §1
# Fedratinib + Olaparib = compound: Cc1cnc(Nc2ccc(OCCN3CCCC3)cc2)nc1Nc1cccc(S(=O)(=O)NC(C)(C)C)c1 [Fedratinib] + O=C(c1cc(Cc2n[nH]c(=O)c3ccccc23)ccc1F)N1CCN(C(=O)C2CC2)CC1 [Olaparib] (partner 8 µM)
# Procedure, shortened: as §1
Cell Line,relative viability (GW-2580 + OSI-027; first compound 0.08 µM),relative viability (GW-2580 + OSI-027; first compound 0.8 µM),relative viability (GW-2580 + OSI-027; first compound 2.53 µM),relative viability (GW-2580 + OSI-027; first compound 8 µM),relative viability (GW-2580 + Decitabine; first compound 0.08 µM),relative viability (GW-2580 + Decitabine; first compound 0.8 µM),relative viability (GW-2580 + Decitabine; first compound 2.53 µM),relative viability (GW-2580 + Decitabine; first compound 8 µM),relative viability (Fedratinib + OSI-027; first compound 0.1 µM),relative viability (Fedratinib + OSI-027; first compound 0.3162 µM),relative viability (Fedratinib + OSI-027; first compound 1 µM),relative viability (Fedratinib + Crizotinib; first compound 0.1 µM),relative viability (Fedratinib + Crizotinib; first compound 0.3162 µM),relative viability (Fedratinib + Crizotinib; first compound 1 µM),relative viability (Fedratinib + Pemetrexed; first compound 0.1 µM),relative viability (Fedratinib + Pemetrexed; first compound 0.3162 µM),relative viability (Fedratinib + Pemetrexed; first compound 1 µM),relative viability (Fedratinib + Olaparib; first compound 0.1 µM),relative viability (Fedratinib + Olaparib; first compound 0.3162 µM),relative viability (Fedratinib + Olaparib; first compound 1 µM)
NCI-H1993,0.656,0.559,0.55,0.561,0.652,0.665,0.514,0.63,0.519,0.522,0.524,0.747,0.773,0.848,0.523,0.513,0.589,0.949,1.01,0.839
NCI-H520,0.276,0.316,0.241,0.272,0.501,0.489,0.524,0.545,0.255,0.253,0.216,0.716,0.703,0.594,0.804,0.59,0.436,0.306,0.347,0.29
NCI-H647,0.68,0.612,0.646,0.745,0.402,0.272,0.361,0.383,0.625,0.697,0.444,1.06,1.09,0.584,0.172,0.146,0.134,0.697,0.467,0.373
NCI-H1792,0.763,1.14,–,0.883,0.574,0.546,0.387,0.502,0.607,0.808,0.748,1.26,0.972,0.854,0.784,0.67,0.597,0.599,0.402,0.282
SK-LU-1,0.366,0.347,0.321,0.348,0.631,0.673,0.55,0.668,0.307,0.35,0.289,–,0.836,0.584,1,0.906,0.837,0.407,0.361,0.341
ChaGo-K-1,0.625,0.548,0.532,0.575,0.561,0.515,0.495,0.519,0.431,0.577,0.504,0.851,1.06,0.975,0.273,0.254,0.253,0.469,0.402,0.391
NCI-H1650,0.738,0.747,0.624,0.464,0.502,0.396,0.468,0.372,–,0.69,0.515,0.706,0.926,0.888,0.292,0.312,0.37,0.835,0.726,0.674
NCI-H2009,0.665,0.707,0.619,0.633,0.415,0.427,0.378,0.482,0.529,0.632,0.455,1.04,0.977,0.884,0.985,0.97,1.01,0.692,0.694,0.649
LOU-NH91,0.706,0.808,0.678,0.721,0.82,0.861,0.782,0.905,0.669,0.72,0.664,0.701,0.764,0.75,0.43,0.351,0.399,0.847,0.941,0.91
NCI-H2405,0.643,0.668,0.609,0.618,0.739,0.766,0.746,0.729,0.601,0.618,0.61,0.796,0.849,0.818,1.07,1.12,0.863,0.837,0.835,0.802
LCLC-97TM1,0.556,0.614,0.624,0.426,0.241,0.224,0.213,0.209,0.715,0.504,0.452,0.353,0.24,0.334,0.204,0.151,0.169,0.588,0.386,0.428
NCI-H596,0.823,0.733,0.76,0.808,1.12,0.883,1.89,0.937,0.577,0.727,0.746,0.983,1.01,0.973,0.511,0.511,0.426,0.643,0.6,0.572
H3255,0.577,0.606,0.622,0.595,0.564,0.613,0.557,0.576,0.521,0.671,0.565,0.873,0.805,0.723,0.531,0.559,0.563,0.532,0.518,0.522
SK-MES-1,0.625,0.723,0.592,0.379,0.361,0.399,0.309,0.422,0.544,0.6,0.436,1.04,0.992,0.923,1.01,0.947,0.811,0.806,0.654,0.479
NCI-H1437,0.943,0.864,0.889,0.85,0.564,0.574,0.617,0.535,0.911,0.924,0.825,0.999,0.883,0.922,0.244,0.309,0.313,0.627,0.645,0.598
